The source made the active and inactive calls. No cut-off for these calls is given here.
What was measured:
[1] = tested on: MDA-MB-231; test: Antiproliferative activity against human MDA-MB-231 cells; format: functional, cell-based
[2] = tested on: HCT-116; test: Antiproliferative activity against human HCT-116 cells assessed as inhibition of cell growth measured after 48 hrs by SRB method; format: functional, cell-based; conditions: HCT-116, 48 h
[3] = Antiproliferative activity against HEK293 cells assessed as inhibition of cell growth measured after 48 hrs by SRB method; format: toxicity, cell-based; conditions: human
[4] = tested on: MCF7; test: Antiproliferative activity against human MCF7 cells assessed as inhibition of cell growth measured after 48 hrs by SRB method; format: functional, cell-based; conditions: MCF7, 48 h
[5] = tested on: MDA-MB-231; test: Antiproliferative activity against human MDA-MB-231 cells assessed as inhibition of cell growth measured after 48 hrs by SRB method; format: functional, cell-based; conditions: MDA-MB-231, 48 h
[6] = tested on: A549; test: Antiproliferative activity against human A549 cells assessed as inhibition of cell growth measured after 48 hrs by SRB method; format: functional, cell-based; conditions: A549, 48 h
[7] = tested on: MDA-MB-468; test: Antiproliferative activity against human MDA-MB-468 cells assessed as inhibition of cell growth measured after 48 hrs by SRB method; format: functional, cell-based; conditions: MDA-MB-468, 48 h
[8] = tested on: MDA-MB-231; test: Inhibition of colony formation in human MDA-MB-231 cells assessed as reduction in colony size at 4 to 16 uM incubated for 24 hrs; format: functional, cell-based; conditions: dose 4-16 µM
[9] = tested on: MDA-MB-231; test: Induction of apoptosis in human MDA-MB-231 cells assessed as increase in caspase-3 expression by Western blot analysis; format: functional, cell-based
[10] = tested on: Cell membrane; test: Induction of mitochondrial membrane potential loss in human MDA-MB-231 cells assessed as reduction in fluorescence measured after 48 hrs by rhodamine-123 dye based fluorescence assay; conditions: dose 4-16 µM
[11] = tested on: MDA-MB-231; test: Inhibition of colony formation in human MDA-MB-231 cells incubated for 24 hrs; format: functional, cell-based; conditions: dose 4-16 µM
[12] = Selectivity index, ratio of IC50 for HEK293 cells to IC50 for human MCF7 cells; format: toxicity; conditions: HEK293 cells versus MCF7 cells, read-out: Ratio IC50
[13] = Selectivity index, ratio of IC50 for HEK293 cells to IC50 for human MDA-MB-231 cells; format: toxicity; conditions: HEK293 cells versus MDA-MB-231 cells, read-out: Ratio IC50
[14] = tested on: MDA-MB-231; test: Induction of apoptosis in human MDA-MB-231 cells assessed as effect on bax/bcl-2 ratio by Western blot analysis; format: functional, cell-based
[15] = tested on: MDA-MB-231; test: Induction of apoptosis in human MDA-MB-231 cells assessed as reduction in Bcl-2 expression by Western blot analysis; format: functional, cell-based
[16] = tested on: A549; test: Antiproliferative activity against human A549 cells assessed as inhibition of cell growth at 20 uM by SRB method relative to control; format: functional; parameters: scale not given: the % may be the effect or the level left
[17] = tested on: MCF7; test: Antiproliferative activity against human MCF7 cells assessed as inhibition of cell growth at 20 uM by SRB method relative to control; format: functional; parameters: scale not given: the % may be the effect or the level left
[18] = tested on: MDA-MB-231; test: Induction of ROS generation in human MDA-MB-231 cells measured after 48 hrs by DCFDA staining based fluorescent microscopic analysis; format: functional, cell-based; conditions: dose 4-16 µM
[19] = tested on: MDA-MB-231; test: Induction of apoptosis in human MDA-MB-231 cells assessed as cell blebbing at 4 to 16 uM measured after 48 hrs by DAPI staining based fluorescent microscopic analysis; format: functional; conditions: dose 4-16 µM
[20] = tested on: MDA-MB-231; test: Inhibition of colony formation in human MDA-MB-231 cells assessed as reduction in number of colonies at 4 to 16 uM incubated for 24 hrs; format: functional, cell-based; conditions: dose 4-16 µM
[21] = tested on: MDA-MB-468; test: Antiproliferative activity against human MDA-MB-468 cells assessed as inhibition of cell growth at 20 uM by SRB method relative to control; format: functional; parameters: scale not given: the % may be the effect or the level left
[22] = tested on: MDA-MB-231; test: Induction of apoptosis in human MDA-MB-231 cells assessed as chromatin condensation at 4 to 16 uM measured after 48 hrs by DAPI staining based fluorescent microscopic analysis; format: functional, cell-based; conditions: dose 4-16 µM
[23] = tested on: MDA-MB-231; test: Antiproliferative activity against human MDA-MB-231 cells assessed as inhibition of cell growth at 20 uM by SRB method relative to control; format: functional; parameters: scale not given: the % may be the effect or the level left
[24] = Selectivity index, ratio of IC50 for HEK293 cells to IC50 for human MDA-MB-468 cells; format: toxicity; conditions: HEK293 cells versus MDA-MB-468 cells, read-out: Ratio IC50
[25] = tested on: HCT-116; test: Antiproliferative activity against human HCT-116 cells assessed as inhibition of cell growth at 20 uM by SRB method relative to control; format: functional; parameters: scale not given: the % may be the effect or the level left
[26] = tested on: MDA-MB-231; test: Induction of apoptosis in human MDA-MB-231 cells assessed as upregulation of bax expression by Western blot analysis; format: functional, cell-based

Question: For `COc1cccc(C(=O)/C=C/c2ccc(N(CCCl)CCCl)cc2)c1`, which IC50 [1] is on record?
Answer: The IC50 was 3940 µM.

Question: With `COc1ccc(/C=C/C(=O)c2ccc(OCC(=O)NC3CCCCC3)cc2)cc1` as the compound, how does the IC50 [2] read?
Answer: The IC50 was 18.9 µM.

Question: What does the source list for `COc1ccc(/C=C/C(=O)c2ccc(OCC(=O)NCc3cc(OC)c(OC)c(OC)c3)cc2)cc1`?
Answer: IC50 [2]: 10.5 µM; IC50 at 48 h [3]: 15.2 µM

Question: With `COc1ccc(/C=C/C(=O)c2ccc(OCC(=O)NCCc3ccccc3)cc2)cc1` as the compound, how does the IC50 at 48 h [3] read?
Answer: Its IC50 at 48 h is 23.4 µM.

Question: Which IC50 [2] does the source give for `COc1ccc(/C=C/C(=O)c2ccc(OCC(=O)N3CCCCC3)cc2)cc1` here?
Answer: Its IC50 is 17.4 µM.

Question: What about the IC50 [4] of the same compound?
Answer: The IC50 was 22.7 µM.

Question: What about the IC50 at 48 h [3] of the same compound?
Answer: Its IC50 at 48 h is 10.8 µM.

Question: Which IC50 [5] does the source give for `COc1ccc(/C=C/C(=O)c2ccc(OCC(=O)Nc3ncccc3Cl)cc2)cc1` here?
Answer: The IC50 was 24.1 µM.

Question: And the IC50 [6]?
Answer: Its IC50 is 35.4 µM.

Question: And the IC50 [7]?
Answer: Its IC50 is 25.2 µM.

Question: With `COc1ccc(/C=C/C(=O)c2ccc(OCC(=O)N3CCSCC3)cc2)cc1` as the compound, how does the IC50 [6] read?
Answer: The IC50 was 45.4 µM.

Question: What about the IC50 [2] of the same compound?
Answer: Its IC50 is 15.2 µM.

Question: What does the source list for `COc1ccc(/C=C/C(=O)c2ccc(OCC(=O)N3CCCC3)cc2)cc1`?
Answer: IC50 [5]: 9.42 µM; inhibition [8]: Active; IC50 [6]: 17.1 µM; Activity [9]: Active; Activity [10]: Dose-Dependent Effect; IC50 [2]: 18.3 µM; inhibition [11]: Dose-Dependent Effect; selectivity ratio [12]: 2.41; selectivity ratio [13]: 4.14; Activity [14]: Active; Activity [15]: Active; Activity [16]: ~60%; Activity [17]: ~60%; Activity [18]: Dose-Dependent Effect; Activity [19]: Active; IC50 [7]: 10.1 µM; inhibition [20]: Active; IC50 [4]: 16.2 µM; Activity [21]: ~60%; IC50 at 48 h [3]: 39.1 µM; Activity [22]: Active; Activity [23]: ~60%; selectivity ratio [24]: 3.85; Activity [25]: ~60%; Activity [26]: Active

From ChEMBL document CHEMBL5576055, “Design, synthesis, and biological evaluation of chalcone acetamide derivatives against triple negative breast cancer” (Bioorg Med Chem Lett, 2024)
